Results published in ChEMBL document CHEMBL1151757, “Synthesis, radiosynthesis, and biological evaluation of fluorine-18-labeled 2beta-carbo(fluoroalkoxy)-3beta-(3'-((Z)-2-haloethenyl)phenyl)nortropanes: candidate radioligands for in vivo imaging of the serotonin transporter with positron emission tomography” (J Med Chem, 2008).

Tested on: Thalamus
Experiment: Drug uptake in anesthetized cynomolgus monkey brain thalamus after 27.5 mins postinjection
Format: ADME, organism-based, Macaca fascicularis
Design: unit not given here
Settings: in vivo

Row | Structure (SMILES) | Drug uptake
1 | O=C(OCCC[18F])C1C2CCC(CC1c1cccc(/C=C\Br)c1)N2 (stereo not given) | 5.08

Tested on: Putamen
Experiment: Drug uptake in anesthetized cynomolgus monkey brain putamen after 75 mins postinjection
Format: ADME, organism-based, Macaca fascicularis
Design: unit not given here
Settings: in vivo, 1.25 h

Row | Structure (SMILES) | Drug uptake
2 | O=C(OCCC[18F])C1C2CCC(CC1c1cccc(/C=C\Br)c1)N2 (stereo not given) | 5.63

Tested on: not listed separately
Experiment: Drug uptake in anesthetized cynomolgus monkey brain occipital lobe after 145 mins postinjection
Format: ADME, organism-based, Macaca fascicularis
Settings: in vivo

Row | Structure (SMILES) | Drug uptake
3 | O=C(OCCC[18F])C1C2CCC(CC1c1cccc(/C=C\Br)c1)N2 (stereo not given) | 3.5

Tested on: Midbrain
Experiment: Drug uptake in anesthetized cynomolgus monkey brain midbrain after 115 mins postinjection
Format: ADME, organism-based, Macaca fascicularis
Design: unit not given here
Settings: in vivo

Row | Structure (SMILES) | Drug uptake
4 | O=C(OCCC[18F])C1C2CCC(CC1c1cccc(/C=C\Br)c1)N2 (stereo not given) | 5.52

Tested on: Medulla
Experiment: Drug uptake in anesthetized cynomolgus monkey brain medulla after 135 mins postinjection
Format: ADME, organism-based, Macaca fascicularis
Settings: in vivo, 2.25 h

Row | Structure (SMILES) | Drug uptake
5 | O=C(OCCC[18F])C1C2CCC(CC1c1cccc(/C=C\Br)c1)N2 (stereo not given) | 4.99

Tested on: not listed separately
Experiment: Ratio of drug uptake in caudate to cerebellum in anesthetized cynomolgus monkey after 9.5 mins postinjection
Format: ADME, organism-based, Macaca fascicularis
Settings: in vivo

Row | Structure (SMILES) | Ratio
6 | O=C(OCCC[18F])C1C2CCC(CC1c1cccc(/C=C\Br)c1)N2 (stereo not given) | 0.7

Tested on: Pons
Experiment: Drug uptake in anesthetized cynomolgus monkey brain pons after 15.5 mins postinjection
Format: ADME, organism-based, Macaca fascicularis
Settings: in vivo

Row | Structure (SMILES) | Drug uptake
7 | O=C(OCCC[18F])C1C2CCC(CC1c1cccc(/C=C\Br)c1)N2 (stereo not given) | 4.79

Tested on: not listed separately
Experiment: Drug uptake in anesthetized cynomolgus monkey brain frontal lobe after 18.5 mins postinjection
Format: ADME, organism-based, Macaca fascicularis
Settings: in vivo

Row | Structure (SMILES) | Drug uptake
8 | O=C(OCCC[18F])C1C2CCC(CC1c1cccc(/C=C\Br)c1)N2 (stereo not given) | 3.7

Tested on: Medulla
Experiment: Drug uptake in anesthetized cynomolgus monkey brain medulla after 155 mins postinjection
Format: ADME, organism-based, Macaca fascicularis
Settings: in vivo

Row | Structure (SMILES) | Drug uptake
9 | O=C(OCCC[18F])C1C2CCC(CC1c1cccc(/C=C\Br)c1)N2 (stereo not given) | 4.48

Tested on: Caudate
Experiment: Drug uptake in anesthetized cynomolgus monkey brain caudate after 35 mins postinjection
Format: ADME, organism-based, Macaca fascicularis, Caudate nucleus
Settings: in vivo

Row | Structure (SMILES) | Drug uptake
10 | O=C(OCCC[18F])C1C2CCC(CC1c1cccc(/C=C\Br)c1)N2 (stereo not given) | 5.13

Tested on: not listed separately
Experiment: Ratio of drug uptake in midbrain to cerebellum in anesthetized cynomolgus monkey after 215 mins postinjection
Format: ADME, organism-based, Macaca fascicularis
Settings: in vivo

Row | Structure (SMILES) | Ratio
11 | O=C(OCCC[18F])C1C2CCC(CC1c1cccc(/C=C\Br)c1)N2 (stereo not given) | 2.2

Tested on: not listed separately
Experiment: Ratio of drug uptake in medulla to cerebellum in anesthetized cynomolgus monkey after 0.5 mins postinjection
Format: ADME, organism-based, Macaca fascicularis
Settings: in vivo

Row | Structure (SMILES) | Ratio
12 | O=C(OCCC[18F])C1C2CCC(CC1c1cccc(/C=C\Br)c1)N2 (stereo not given) | 2.4

Tested on: Putamen
Experiment: Drug uptake in anesthetized cynomolgus monkey brain putamen after 45 mins postinjection
Format: ADME, organism-based, Macaca fascicularis
Design: unit not given here
Settings: in vivo, 0.75 h

Row | Structure (SMILES) | Drug uptake
13 | O=C(OCCC[18F])C1C2CCC(CC1c1cccc(/C=C\Br)c1)N2 (stereo not given) | 6.05

Tested on: Midbrain
Experiment: Drug uptake in anesthetized cynomolgus monkey brain midbrain after 165 mins postinjection
Format: ADME, organism-based, Macaca fascicularis
Settings: in vivo, 2.75 h

Row | Structure (SMILES) | Drug uptake
14 | O=C(OCCC[18F])C1C2CCC(CC1c1cccc(/C=C\Br)c1)N2 (stereo not given) | 5.06

Tested on: not listed separately
Experiment: Drug uptake in anesthetized cynomolgus monkey brain occipital lobe after 135 mins postinjection
Format: ADME, organism-based, Macaca fascicularis
Settings: in vivo, 2.25 h

Row | Structure (SMILES) | Drug uptake
15 | O=C(OCCC[18F])C1C2CCC(CC1c1cccc(/C=C\Br)c1)N2 (stereo not given) | 3.57

Tested on: not listed separately
Experiment: Ratio of drug uptake in midbrain to cerebellum in anesthetized cynomolgus monkey after 9.5 mins postinjection
Format: ADME, organism-based, Macaca fascicularis
Settings: in vivo

Row | Structure (SMILES) | Ratio
16 | O=C(OCCC[18F])C1C2CCC(CC1c1cccc(/C=C\Br)c1)N2 (stereo not given) | 0.9

Tested on: Caudate
Experiment: Drug uptake in anesthetized cynomolgus monkey brain caudate after 175 mins postinjection
Format: ADME, organism-based, Macaca fascicularis, Caudate nucleus
Settings: in vivo

Row | Structure (SMILES) | Drug uptake
17 | O=C(OCCC[18F])C1C2CCC(CC1c1cccc(/C=C\Br)c1)N2 (stereo not given) | 4.04

Tested on: Caudate
Experiment: Drug uptake in anesthetized cynomolgus monkey brain caudate after 3.5 mins postinjection
Format: ADME, organism-based, Macaca fascicularis, Caudate nucleus
Settings: in vivo

Row | Structure (SMILES) | Drug uptake
18 | O=C(OCCC[18F])C1C2CCC(CC1c1cccc(/C=C\Br)c1)N2 (stereo not given) | 1.7

Tested on: not listed separately
Experiment: Drug uptake in anesthetized cynomolgus monkey brain frontal lobe after 6.5 mins postinjection
Format: ADME, organism-based, Macaca fascicularis
Settings: in vivo

Row | Structure (SMILES) | Drug uptake
19 | O=C(OCCC[18F])C1C2CCC(CC1c1cccc(/C=C\Br)c1)N2 (stereo not given) | 2.95

Tested on: not listed separately
Experiment: Drug uptake in anesthetized cynomolgus monkey brain occipital lobe after 115 mins postinjection
Format: ADME, organism-based, Macaca fascicularis
Settings: in vivo

Row | Structure (SMILES) | Drug uptake
20 | O=C(OCCC[18F])C1C2CCC(CC1c1cccc(/C=C\Br)c1)N2 (stereo not given) | 3.72

Tested on: Pons
Experiment: Drug uptake in anesthetized cynomolgus monkey brain pons after 175 mins postinjection
Format: ADME, organism-based, Macaca fascicularis
Settings: in vivo

Row | Structure (SMILES) | Drug uptake
21 | O=C(OCCC[18F])C1C2CCC(CC1c1cccc(/C=C\Br)c1)N2 (stereo not given) | 3.78

Tested on: Medulla
Experiment: Drug uptake in anesthetized cynomolgus monkey brain medulla after 105 mins postinjection
Format: ADME, organism-based, Macaca fascicularis
Settings: in vivo, 1.75 h

Row | Structure (SMILES) | Drug uptake
22 | O=C(OCCC[18F])C1C2CCC(CC1c1cccc(/C=C\Br)c1)N2 (stereo not given) | 5.19

Tested on: Thalamus
Experiment: Drug uptake in anesthetized cynomolgus monkey brain thalamus after 165 mins postinjection
Format: ADME, organism-based, Macaca fascicularis
Design: unit not given here
Settings: in vivo, 2.75 h

Row | Structure (SMILES) | Drug uptake
23 | O=C(OCCC[18F])C1C2CCC(CC1c1cccc(/C=C\Br)c1)N2 (stereo not given) | 4.31

Tested on: Pons
Experiment: Drug uptake in anesthetized cynomolgus monkey brain pons after 9.5 mins postinjection
Format: ADME, organism-based, Macaca fascicularis
Settings: in vivo

Row | Structure (SMILES) | Drug uptake
24 | O=C(OCCC[18F])C1C2CCC(CC1c1cccc(/C=C\Br)c1)N2 (stereo not given) | 4.14

Tested on: not listed separately
Experiment: Drug uptake in anesthetized cynomolgus monkey brain cerebellum after 6.5 mins postinjection
Format: ADME, organism-based, Macaca fascicularis
Settings: in vivo

Row | Structure (SMILES) | Drug uptake
25 | O=C(OCCC[18F])C1C2CCC(CC1c1cccc(/C=C\Br)c1)N2 (stereo not given) | 5.03

Tested on: not listed separately
Experiment: Drug uptake in anesthetized cynomolgus monkey brain frontal lobe after 145 mins postinjection
Format: ADME, organism-based, Macaca fascicularis
Settings: in vivo

Row | Structure (SMILES) | Drug uptake
26 | O=C(OCCC[18F])C1C2CCC(CC1c1cccc(/C=C\Br)c1)N2 (stereo not given) | 2.85

Tested on: not listed separately
Experiment: Drug uptake in anesthetized cynomolgus monkey brain frontal lobe after 165 mins postinjection
Format: ADME, organism-based, Macaca fascicularis
Settings: in vivo, 2.75 h

Row | Structure (SMILES) | Drug uptake
27 | O=C(OCCC[18F])C1C2CCC(CC1c1cccc(/C=C\Br)c1)N2 (stereo not given) | 2.58

Tested on: not listed separately
Experiment: Drug uptake in anesthetized cynomolgus monkey brain cerebellum after 1.5 mins postinjection
Format: ADME, organism-based, Macaca fascicularis
Settings: in vivo, 0.025 h

Row | Structure (SMILES) | Drug uptake
28 | O=C(OCCC[18F])C1C2CCC(CC1c1cccc(/C=C\Br)c1)N2 (stereo not given) | 0.48

Tested on: Medulla
Experiment: Drug uptake in anesthetized cynomolgus monkey brain medulla after 18.5 mins postinjection
Format: ADME, organism-based, Macaca fascicularis
Settings: in vivo

Row | Structure (SMILES) | Drug uptake
29 | O=C(OCCC[18F])C1C2CCC(CC1c1cccc(/C=C\Br)c1)N2 (stereo not given) | 5.87

Tested on: not listed separately
Experiment: Drug uptake in anesthetized cynomolgus monkey brain occipital lobe after 9.5 mins postinjection
Format: ADME, organism-based, Macaca fascicularis
Settings: in vivo

Row | Structure (SMILES) | Drug uptake
30 | O=C(OCCC[18F])C1C2CCC(CC1c1cccc(/C=C\Br)c1)N2 (stereo not given) | 3.77
